Test results: article PMC8901119 (Chemical Science, 2021)
Values joined by “and” are separate entries in the source; they are usually repeats but may differ in a detail not shown here. Equal entries are not always repeated. “Also recorded” adds a separate entry of the source. Each block holds one molecule with its values, some of them ahead of it. Starred links: 1 amine or outer side, 2 acyl side, 3 side chain; linkers in the order of their positions; H or OH if unused. Non-standard residues stand in square brackets, D forms with d. Residues, ends and D or L forms follow the SMILES beside them. Ala(7-MeO-coumarin-4-yl) = COc1ccc2c(C[C@H](N)C(=O)O)cc(=O)oc2c1; X1 = C[C@H](NC(=S)[C@H](CCCNC(=N)N)N[*:1])C(=O)[*:2]

Legend:
Cts L [1] = target: T1, Cts L (Homo sapiens, UniProt P07711); assay: Cathepsin L inhibition assay with Z-FR-AMC; details: Cts L, mixed inhibition model fit, Z-FR-AMC, pH 5.5, 27 °C
Cts B = target: T2, Cts B (Homo sapiens, UniProt P07858); assay: Cathepsin B inhibition assay with Z-RR-AMC; type: biochemical; details: approximate; competitive model
T2 construct: cathepsin B (Cts B, ≥1,500 units/mg protein, solution; from human liver); purchased Sigma-Aldrich; host or cells: human liver (tissue-purified)
Description: (§1) Phan et al. Electronic SupplementaryInformation
Cathepsin B Inhibition Assay. For cathepsin B (Cts B, ≥1,500 units/mg protein, solution; from […]
and 5 mM DTT (pH 5.5). A stock solution of enzyme in 50 mM sodium acetate, pH 5.0, with 1 […]
Diluted solution of Cts B was […]
kinetic model in Prism 8 (GraphPad Software; La Jolla, CA) using Eq. S1 to determine Vmax and KM (Table S22). 5 Turnover number (k cat) was calculated by dividing Vmax by the enzyme concentration(Table S22).
(§2) Similar analysis was done for Cts V, Cts K, Cts S, and Cts B to evaluate and approximate the inhibitory effects of the thiopeptide RS1A. Initial evaluation of the kinetic parameters were obtained […]
(§3) 24), then the data were further analyzed with the non-linear regression method with a mixed - […]
(§4) the mechanism with the parameter α. Further fitting to an appropriate model (e.g. uncompetitive, competitive, or non-competitive model) was performed if needed. The approximate kinetic parameters resulted from best fit models for the RS1A peptide and the corresponding proteases are […]
(§5) Table S24. Approximate Kinetic Parameters for Cts L, V, K, S, and B Inhibition by R S1A Peptide (μHLFR SAμ).
(§6) Protease α (Best Fitted Model) KI (μM) αKI or KI'
(§7) Cts S Very large (Competitive) 53.47 ± 11.42 - Cts B Very large (Competitive) >> 50 -

Cts S = target: T3, Cts S (Homo sapiens, UniProt P25774); assay: Cathepsin S inhibition assay with Z-LR-AMC; type: biochemical; details: approximate; competitive model
T3 construct: purchased Sigma-Aldrich; host or cells: FreeStyle 293-F cells
Description: as §1
Cathepsin S Inhibition Assay. For cathepsin S (Cts S, 2 mg/mL, solution; recombinant, expressed in FreeStyle™ 293-F cells, ≥90% pure by SDS-PAGE), various concentrations of the substrate Z- […]
A stock solution of 2 mg/mL enzyme in 45 mM Tris-HCl, pH 8.0, 124 mM NaCl, 2.4 mM KCl, 225 mM imidazole, 3 mM DTT, and 10% glycerol was diluted with assay buffer containing 5 mM DTT. Peptide (inhibitor) stock solutions […]
with the assay buffer. A 20 mM stock solution of the chromogenic substrate Z-LR-AMC (Bachem; […]
assay to ensure reproducibility. […]
progress curve (Figure S23). Similar to the analysis with Cts L, these curves were fit to Michaelis - Menten enzyme kinetic model in Prism 8 (GraphPad Software; La Jolla, CA) using Eq. S1 to determine Vmax and KM (Table S21). 5 Turnover number (k cat) was calculated by dividing Vmax by the enzyme concentration (Table S21).
as §2, §3
the mechanism with the parameter α. Further fitting to an appropriate model (e.g. uncompetitive, competitive, or non-competitive model) was performed if needed. […]

[2] = Stability of peptides in HepG2 whole cell lysate; type: in vitro ADME; details: human, 20 μM peptide, 0.05 mg/mL lysate, HPLC
Description: Stability of Peptides in HepG2 Whole Cell Lysate
Using the same conditions as the previous Cts L Activity Assay in HepG2 Whole Cell Lysate, 50 μL peptide (either R1A or RS1A; final concentration 20 μM) was incubated in 50 μL HepG2 whole cell lysate (to a final concentration of 0.05 mg/mL) in the assay buffer for different time points.
The all-amide peptide, R 1A, was incubated for t = 0, 5, 10, 15, 20, and 30 minutes. The thioamide peptide, RS1A, was incubated for t = 0, 2, 6, 8, 10, and 24 hours. After incubation for the desired amount of time, 100 μL methanol was added to the mixture and incubated at -20 °C for 10 minutes before spinning down at 13,000 rpm for 10 minutes. Then, 180 μL of each mixture was further diluted with 220 μL Milli-Q water to a total volume of 400 μL before adding 1 μL 0.42 mM coumarin internal standard for HPLC analysis. The coumarin internal standard was used to normalize the amount of intact peptide in each sample. A Phenomenex Luna® Omega 5 µm PS C18 100 Å analytical column was used to analyze all samples using the same gradient of 20-40 % B over 20 minutes (Solvent A: 0.1% TFA in Milli-Q water; Solvent B: 0.1% TFA in acetonitrile).
Representative HPLC spectra (325 nm) at different time points were also shown to confirm the stability of the peptides in HepG2 whole cell lysate (Figure S26 A & B). MALDI MS was used to confirm the mass from each fraction from the HPLC from experiment with the all-amide peptide (R 1A – expected [M+H]+ = 1133.51 m/z) and the thioamide peptide ( RS1A – expected [M+H]+ = 1149.48 m/z). To calculate the percent intact peptide for each sample, the average ratio of intact peptide to internal standard was compared to that ratio at t = 0. For each time point, the experiment

Cts V = target: T4, Cts V (Homo sapiens, UniProt O60911); assay: Cathepsin V inhibition assay with Z-LR-AMC; type: biochemical; details: pH 5.5, 27 °C, approximate
T4 construct: purchased Sigma-Aldrich; host or cells: FreeStyle 293-F cells
Description: as §1
Cathepsin V Inhibition Assay. For cathepsin V (Cts V, 0.38 mg/mL, solution; recombinant, expressed in FreeStyle™ 293-F cells, ≥90% pure by SDS-PAGE), various concentrations of the […]
A stock solution of 0.35 mg/mL enzyme
Three independent trials were
Similar to the analysis with Cts L, these curves
CA) using Eq. S1 to determine Vmax and KM (Table S19). 5 Turnover number (k cat) was calculated by dividing V max by the enzyme concentration (Table S19).
as §2, §3, §4, §5, §6, §7

Cts L [3] = target: T1, Cts L; assay: Cathepsin L activity assay with HepG2 whole cell lysate; type: biochemical; parameters: Cts L activity in human hepatocellular carcinoma HepG2 whole cell lysate; host or cells: HepG2 whole cell lysate; details: 0.05 mg/mL lysate, 200 μM Ac-FR-AFC, 37 °C, 1 h
Description: Cts L activity in human hepatocellular carcinoma HepG2 whole cell lysate (200 μg at 2.5 mg mL^−1; ab166833; Abcam, Cambridge, MA) was evaluated using a fluorometric Cathepsin L Activity Assay Kit (ab65306; Abcam, Cambridge, MA, USA) following the manufacturer's protocols. […] The cell lysate and the peptide inhibitor were incubated at room temperature for 10 min. A total of 2 μL of 10 mM CL substrate Ac-FR-AFC substrate (to a final concentration of 200 μM) was then added to each well, except the Lysate Background Control wells. Different concentrations (56 nM, 560 nM, and 1 μM) of SID 26681509, a known Cts L inhibitor, were used as positive controls. The samples were mixed; the plate was sealed to avoid evaporation and incubated at 37 °C for 1 h. The fluorescence of each sample was measured at 505 nm with an excitation wavelength of 400 nm on the Tecan plate reader. […]
Cts L activity in human hepatocellular carcinoma HepG2 whole cell lysate (200 µg at 2.5 mg/ml; ab166833; Abcam, Cambridge, MA, USA) was evaluated using a fluorometric Cathepsin L Activity Assay Kit (ab65306; Abcam) following the manufacturer’s protocols. […] The fluorescence of each sample was measured […]
fluorescence data shown in Figure 4 in the main text are the average of three replicates. […]

[4] = HepG2 whole cell lysate in CL assay buffer; details: human, 37 °C, up to 30 minutes (R1A); 24 hours (RS1A)
cathepsin B (Cts B) = details: human, 27 °C, up to 100 min
HepG2 whole cell lysate = details: human, 37 °C, up to 24 hours

T1 sequence (P07711 114-333): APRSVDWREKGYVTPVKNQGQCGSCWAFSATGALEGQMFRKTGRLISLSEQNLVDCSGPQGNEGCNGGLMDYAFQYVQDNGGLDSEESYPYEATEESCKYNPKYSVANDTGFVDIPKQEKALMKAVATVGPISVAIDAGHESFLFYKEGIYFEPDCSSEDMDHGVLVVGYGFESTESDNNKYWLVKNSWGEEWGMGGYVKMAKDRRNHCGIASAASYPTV
T4 sequence (O60911 114-334): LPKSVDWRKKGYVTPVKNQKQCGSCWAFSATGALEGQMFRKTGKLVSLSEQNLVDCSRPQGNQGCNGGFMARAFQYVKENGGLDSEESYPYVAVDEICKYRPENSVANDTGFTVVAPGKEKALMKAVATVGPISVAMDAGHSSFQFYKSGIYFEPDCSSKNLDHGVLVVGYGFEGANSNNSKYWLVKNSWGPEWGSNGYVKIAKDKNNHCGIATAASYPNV
T3 sequence (P25774 115-331): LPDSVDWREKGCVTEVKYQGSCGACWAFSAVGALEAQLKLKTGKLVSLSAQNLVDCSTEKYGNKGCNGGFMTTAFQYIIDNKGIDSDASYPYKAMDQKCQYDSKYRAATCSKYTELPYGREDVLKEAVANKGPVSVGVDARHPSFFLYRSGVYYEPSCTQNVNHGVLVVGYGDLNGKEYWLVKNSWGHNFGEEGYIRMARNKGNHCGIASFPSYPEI

- Ki (Cts L [1]): 1.11 ± 0.22 µM
- Ki (Cts B): > 50 µM
- Ki (Cts S): 53.5 ± 11.4 µM
Molecule: COc1ccc2c(C[C@H](NC(=O)[C@H](C)NC(=S)[C@H](CCCNC(=N)N)NC(=O)[C@H](Cc3ccccc3)NC(=O)[C@H](CC(C)C)NC(=O)[C@H](Cc3c[nH]cn3)NC(=O)[C@@H](N)Cc3cc(=O)oc4cc(OC)ccc34)C(=O)O)cc(=O)oc2c1 [RS1A] (H-[Ala(7-MeO-coumarin-4-yl)]HLF[X1][Ala(7-MeO-coumarin-4-yl)]-OH)

- half-life at 20 μM [2]: 28.6 h
- Ki (Cts V): 26.2 ± 8.42 µM
- IC50 (Cts L [3]): 19 µM and 19.3 µM
Molecule: COc1ccc2c(C[C@H](NC(=O)[C@H](C)NC(=S)[C@H](CCCNC(=N)N)NC(=O)[C@H](Cc3ccccc3)NC(=O)[C@H](CC(C)C)NC(=O)[C@H](Cc3c[nH]cn3)NC(=O)[C@@H](N)Cc3cc(=O)oc4cc(OC)ccc34)C(=O)O)cc(=O)oc2c1 [R^S1A] (H-[Ala(7-MeO-coumarin-4-yl)]HLF[X1][Ala(7-MeO-coumarin-4-yl)]-OH)

- fragment found [4]: µHLFR; Aµ, 5 mins
- cleaved bond (cathepsin B (Cts B)): R-A
- fragment found (HepG2 whole cell lysate): μHLFR, 5 mins; also recorded: Aμ, 5 mins
Molecule: μHLFRAμ (H-[Ala(7-MeO-coumarin-4-yl)]HLFRA[Ala(7-MeO-coumarin-4-yl)]-OH; SMILES COc1ccc2c(C[C@H](NC(=O)[C@H](C)NC(=O)[C@H](CCCNC(=N)N)NC(=O)[C@H](Cc3ccccc3)NC(=O)[C@H](CC(C)C)NC(=O)[C@H](Cc3c[nH]cn3)NC(=O)[C@@H](N)Cc3cc(=O)oc4cc(OC)ccc34)C(=O)O)cc(=O)oc2c1)
